What was measured:
[1] = system: SNB-75; experiment: panel of 60 human tumor cell lines, growth inhibition (CNS Cancer); details: SNB-75
[2] = system: SNB-19; experiment: as above; details: SNB-19
[3] = system: UACC-257; experiment: panel of 60 human tumor cell lines, growth inhibition (Melanoma); details: UACC-257
[4] = system: SF-295; experiment: panel of 60 human tumor cell lines, growth inhibition (CNS Cancer); details: SF-295
[5] = system: NCI-H322M; experiment: panel of 60 human tumor cell lines, growth inhibition (Non-Small Cell Lung Cancer)
[6] = system: PC-3; experiment: panel of 60 human tumor cell lines, growth inhibition (Prostate Cancer); details: PC-3
[7] = system: SK-MEL-28; experiment: panel of 60 human tumor cell lines, growth inhibition (Melanoma); details: SK-MEL-28
[8] = system: U251; experiment: panel of 60 human tumor cell lines, growth inhibition (CNS Cancer); details: U251
[9] = system: UACC-62; experiment: panel of 60 human tumor cell lines, growth inhibition (Melanoma); details: UACC-62
[10] = system: A549/ATCC; experiment: panel of 60 human tumor cell lines, growth inhibition (Non-Small Cell Lung Cancer); details: A549/ATCC
[11] = system: HT29; experiment: panel of 60 human tumor cell lines, growth inhibition (Colon Cancer); details: HT29
[12] = system: NCI-H23; experiment: panel of 60 human tumor cell lines, growth inhibition (Non-Small Cell Lung Cancer); details: NCI-H23
[13] = system: A498; experiment: panel of 60 human tumor cell lines, growth inhibition (Renal Cancer); details: A498
[14] = system: MDA-MB-468; experiment: panel of 60 human tumor cell lines, growth inhibition (Breast Cancer); details: MDA-MB-468
[15] = system: M14; experiment: panel of 60 human tumor cell lines, growth inhibition (Melanoma); details: M14
[16] = system: SR; experiment: panel of 60 human tumor cell lines, growth inhibition (Leukemia)
[17] = system: OVCAR-3; experiment: panel of 60 human tumor cell lines, growth inhibition (Ovarian Cancer); details: OVCAR-3
[18] = system: TK-10; experiment: panel of 60 human tumor cell lines, growth inhibition (Renal Cancer); details: TK-10

In the case of C=C1C(=O)O[C@H]2[C@H]1CC/C(COC(=O)NCCN1CCCCC1)=C\CC[C@@]1(C)O[C@@H]21 [JVM 2-13], the GI50 [1] is reported as 10.4 µM, the TGI [1] is reported as 2.256−5 M and the “Percent Growth” value ([1]; Log10 Concentration −4.0) is reported as −96%. For the same compound, the “Percent Growth” value ([1]; Log10 Concentration −5.0) was 52%, the “Percent Growth” value ([1]; Log10 Concentration −6.0) was 73% and the “Percent Growth” value ([1]; Log10 Concentration −7.0) was 75%. For the same compound, the “Percent Growth” value ([1]; Log10 Concentration −8.0) was 75%, the GI50 [2] was 16.8 µM and the TGI [2] was 15.1 µM. The “Percent Growth” value ([2]; Log10 Concentration −4.0) was −71%, the “Percent Growth” value ([2]; Log10 Concentration −5.0) was 85% and the “Percent Growth” value ([2]; Log10 Concentration −6.0) was 96%. For the same compound, the “Percent Growth” value ([2]; Log10 Concentration −7.0) was 97%, the “Percent Growth” value ([2]; Log10 Concentration −8.0) was 98% and the GI50 [3] was 4.99 µM. For the same compound, the TGI [3] was 19.2 µM, the “Percent Growth” value ([3]; Log10 Concentration −4.0) was −86% and the “Percent Growth” value ([3]; Log10 Concentration −5.0) was 34%. For the same compound, the “Percent Growth” value ([3]; Log10 Concentration −6.0) was 86%, the “Percent Growth” value ([3]; Log10 Concentration −7.0) was 92% and the “Percent Growth” value ([3]; Log10 Concentration −8.0) was 94%. The GI50 [4] was 50.8 µM, the TGI [4] was over 100 µM and the “Percent Growth” value ([4]; Log10 Concentration −4.0) was 32%. The “Percent Growth” value ([4]; Log10 Concentration −5.0) was 94%, the “Percent Growth” value ([4]; Log10 Concentration −6.0) was 96% and the “Percent Growth” value ([4]; Log10 Concentration −7.0) was 95%. The “Percent Growth” value ([4]; Log10 Concentration −8.0) was 90%, the GI50 [5] was 17.4 µM and the “Percent Growth” value ([5]; Log10 Concentration −4.0) was −89%. For the same compound, the “Percent Growth” value ([5]; Log10 Concentration −5.0) was 94%, the “Percent Growth” value ([5]; Log10 Concentration −6.0) was 106% and the “Percent Growth” value ([5]; Log10 Concentration −7.0) was 112%. For the same compound, the “Percent Growth” value ([5]; Log10 Concentration −8.0) was 105%, the GI50 [6] was 15.7 µM and the TGI [6] was 33.3 µM. For the same compound, the “Percent Growth” value ([6]; Log10 Concentration −4.0) was −73%, the “Percent Growth” value ([6]; Log10 Concentration −5.0) was 80% and the “Percent Growth” value ([6]; Log10 Concentration −6.0) was 94%. The “Percent Growth” value ([6]; Log10 Concentration −7.0) was 96%, the “Percent Growth” value ([6]; Log10 Concentration −8.0) was 97% and the GI50 [7] was 3.35 µM. For the same compound, the TGI [7] was 14 µM, the “Percent Growth” value ([7]; Log10 Concentration −4.0) was −81% and the “Percent Growth” value ([7]; Log10 Concentration −5.0) was 14%. The “Percent Growth” value ([7]; Log10 Concentration −6.0) was 90%, the “Percent Growth” value ([7]; Log10 Concentration −7.0) was 100% and the “Percent Growth” value ([7]; Log10 Concentration −8.0) was 98%. For the same compound, the GI50 [8] was 17.5 µM, the TGI [8] was 13.5 µM and the “Percent Growth” value ([8]; Log10 Concentration −4.0) was −84%. The “Percent Growth” value ([8]; Log10 Concentration −5.0) was 93%, the “Percent Growth” value ([8]; Log10 Concentration −6.0) was 94% and the “Percent Growth” value ([8]; Log10 Concentration −7.0) was 97%. For the same compound, the “Percent Growth” value ([8]; Log10 Concentration −8.0) was 98%, the GI50 [9] was 4.86 µM and the TGI [9] was 18.9 µM. The “Percent Growth” value ([9]; Log10 Concentration −4.0) was −85%, the “Percent Growth” value ([9]; Log10 Concentration −5.0) was 33% and the “Percent Growth” value ([9]; Log10 Concentration −6.0) was 88%. The “Percent Growth” value ([9]; Log10 Concentration −7.0) was 95%, the “Percent Growth” value ([9]; Log10 Concentration −8.0) was 95% and the GI50 [10] was 18.1 µM. For the same compound, the TGI [10] was 42.2 µM, the “Percent Growth” value ([10]; Log10 Concentration −4.0) was −51% and the “Percent Growth” value ([10]; Log10 Concentration −5.0) was 85%. For the same compound, the “Percent Growth” value ([10]; Log10 Concentration −6.0) was 94%, the “Percent Growth” value ([10]; Log10 Concentration −7.0) was 98% and the “Percent Growth” value ([10]; Log10 Concentration −8.0) was 95%. The GI50 [11] was 3.76 µM, the TGI [11] was 13 µM and the “Percent Growth” value ([11]; Log10 Concentration −4.0) was −75%. For the same compound, the “Percent Growth” value ([11]; Log10 Concentration −5.0) was 10%, the “Percent Growth” value ([11]; Log10 Concentration −6.0) was 104% and the “Percent Growth” value ([11]; Log10 Concentration −7.0) was 100%. The “Percent Growth” value ([11]; Log10 Concentration −8.0) was 100%, the GI50 [12] was 11.3 µM and the TGI [12] was 27.2 µM. The “Percent Growth” value ([12]; Log10 Concentration −4.0) was −74%, the “Percent Growth” value ([12]; Log10 Concentration −5.0) was 57% and the “Percent Growth” value ([12]; Log10 Concentration −6.0) was 104%. The “Percent Growth” value ([12]; Log10 Concentration −7.0) was 100%, the “Percent Growth” value ([12]; Log10 Concentration −8.0) was 98% and the GI50 [13] was 11.8 µM. The TGI [13] was 25 µM, the “Percent Growth” value ([13]; Log10 Concentration −4.0) was −92% and the “Percent Growth” value ([13]; Log10 Concentration −5.0) was 61%. The “Percent Growth” value ([13]; Log10 Concentration −6.0) was 71%, the “Percent Growth” value ([13]; Log10 Concentration −7.0) was 65% and the “Percent Growth” value ([13]; Log10 Concentration −8.0) was 73%. The GI50 [14] was 1.41 µM, the TGI [14] was 4.47 µM and the “Percent Growth” value ([14]; Log10 Concentration −4.0) was −68%. For the same compound, the “Percent Growth” value ([14]; Log10 Concentration −5.0) was −35%, the “Percent Growth” value ([14]; Log10 Concentration −6.0) was 65% and the “Percent Growth” value ([14]; Log10 Concentration −7.0) was 95%. The “Percent Growth” value ([14]; Log10 Concentration −8.0) was 99%, the GI50 [15] was 6.78 µM and the “Percent Growth” value ([15]; Log10 Concentration −4.0) was −82%. The “Percent Growth” value ([15]; Log10 Concentration −5.0) was 42%, the “Percent Growth” value ([15]; Log10 Concentration −6.0) was 91% and the “Percent Growth” value ([15]; Log10 Concentration −7.0) was 96%. The “Percent Growth” value ([15]; Log10 Concentration −8.0) was 91%, the TGI [16] was 15.4 µM and the “Percent Growth” value ([16]; Log10 Concentration −4.0) was −47%. For the same compound, the “Percent Growth” value ([16]; Log10 Concentration −5.0) was 11%, the “Percent Growth” value ([16]; Log10 Concentration −6.0) was 75% and the “Percent Growth” value ([16]; Log10 Concentration −7.0) was 95%. The “Percent Growth” value ([16]; Log10 Concentration −8.0) was 118%, the GI50 [17] was 2.42 µM and the TGI [17] was 8.46 µM. For the same compound, the “Percent Growth” value ([17]; Log10 Concentration −4.0) was −97%, the “Percent Growth” value ([17]; Log10 Concentration −5.0) was −7% and the “Percent Growth” value ([17]; Log10 Concentration −6.0) was 85%. The “Percent Growth” value ([17]; Log10 Concentration −7.0) was 105%, the “Percent Growth” value ([17]; Log10 Concentration −8.0) was 108% and the CC50 ([17]; read-out: LC50) was 30.4 µM. For the same compound, the GI50 [18] was 2.88 µM, the TGI [18] was 11.1 µM and the “Percent Growth” value ([18]; Log10 Concentration −4.0) was −94%. For the same compound, the “Percent Growth” value ([18]; Log10 Concentration −5.0) was 5%, the “Percent Growth” value ([18]; Log10 Concentration −6.0) was 89% and the “Percent Growth” value ([18]; Log10 Concentration −7.0) was 103%. The “Percent Growth” value ([18]; Log10 Concentration −8.0) was 105%.

Reference: patent publication US9469650B2, “Melampomagnolide B derivatives” (BOARD OF TRUSTEES OF THE UNIVERSITY OF ARKANSAS, priority 2013, dated 2016)
